“Also recorded” adds a separate entry of the source.
Test system: IR condensates
Assay: tc-PALM of IR cluster/condensate dynamics in HepG2 cells expressing IR-Dendra2
Assay type: cell-based, human
Procedure: Widefield Live-cell super-resolution imaging was performed in a photo-activation localization microscopy (PALM) approach using a Nikon Eclipse Ti microscope with a 100× oil immersion objective. The 405 nm and 561 nm laser beams were combined in an external platform with customized power densities to image Dendra2-tagged molecules as previously reported (56). Cells were maintained at 37° C. in a temperature-controlled platform during imaging, and the CO2 level was maintained at 5% by Leibovitz's L-15 Medium with no phenol red (ThermoFisher #21083027). In each imaging cycle, a 2400-frame video stream including a (256 pixel)2 region of interest (ROI) was recorded in 20 Hz acquisition rate with the EM-gain setting as 1000 on an Andor iXon Ultra 897 EMCCD. Each pixel conjugates with a (160 nm)2 area on the sample side. After PALM imaging, the Hoechst-stained nuclei of the same ROI were imaged with stronger 405 nm excitation through DAPI filter.
Detection localization. For each frame of a raw image, Gaussian particles were identified by pixelwise test of hypotheses, whose peak positions were individually fitted at subpixel resolution by maximum-likelihood regression with Gauss-Newton method (91). An additional deflation loop was performed to avoid missing dimmer particles when they were overshadowed by neighboring brighter ones. This multi-particle detection localization procedure has been integrated in a published, open-source MATLAB software called MTT (91).
Spatial clustering. DBSCAN and “manual selection” hybridized approach was applied to group spatially clustered detections via the qSR software (92). Firstly, DBSCAN was performed to generalize a proposal map of spatially clustered detections. Given that IR condensates can be tiny and transient, a “loose” parameter setting was used when performing the DBSCAN (length-scale=120 nm, N_min=4). This parameter combination was determined by comparing the rendered super-resolved reconstructions with the color-coded cluster maps until the clustering results visually make sense for most ROIs. Secondly, individual clusters were manually selected based on the clustering proposal map from last step. Some custom MATLAB code was used to reconstruct the IR distribution of each ROI superposed with the corresponding nuclei image, which was further cross-compared with the corresponding cluster map to determine which region each cluster belongs to (i.e., plasma-membrane, cytoplasm, or nucleus).
Temporal clustering. For each spatial cluster, time-correlated PALM (tc-PALM) analysis was performed along the time axis to extract the truly colocalized, time-correlated multimolecule bursting events (11, 13-14). The lifetime of a burst is simply defined as the timespan from the first to the last detections. More details about the quantitative validations and statistics of tc-PALM analysis can be found in NOTES and FIG. 11.
Widefield, live-cell, super-resolution imaging was performed in a photo-activation localization microscopy (PALM) approach using a Nikon Eclipse Ti microscope with a 100× oil immersion objective. The 405 nm and 561 nm laser beams were combined in an external platform with customized power densities to image Dendra2-tagged molecules as previously reported^24. Cells were cultured on imaging dishes (MatTek, P35G-1.5-20-C) and then imaged while maintaining both the temperature at 37° C. with a temperature-controlled platform and the level of CO2 at 5% with Leibovitz's L-15 Medium with no phenol red (Thermo Fisher, 21083027). During each imaging cycle, a 2400-frame video stream including a (256 pixel)^2 region of interest (ROI) was recorded in 20 Hz acquisition rate with the EM-gain setting as 1000 on an Andor iXon Ultra 897 EMCCD. Each pixel conjugates with a (160 nm)^2 area on the sample side. After PALM imaging, the Hoechst-stained nuclei of the same ROI were imaged using a stronger 405 nm excitation through DAPI filter. […] Following a 5-minute wait, the cells were imaged for 15-20 minutes.

[1] = insulin resistant (3 nM insulin) versus sensitive (0.1 nM) cells
[2] = insulin sensitive cells, 3 nM insulin 5 min

insulin: insulin (Sigma Aldrich, I9278-5ML) used for acute stimulation and chronic physiological or pathological exposure
average number of IR-Dendra2 detections per cluster (entire cells, insulin-stimulated (3 nM, 5 min), 22 (range 4-609) in unstimulated cells): 27 (range 4-539) | increase of percentage of long-lived IR clusters, cytoplasm [1]: 1.4 fold | increase of percentage of long-lived IR clusters, nucleus [1]: 3.6 fold | number of IR clusters in the cytoplasm and nucleus [2]: produced an increase; also recorded: resulted in an increase | number of IR molecules / IR detections in clusters [2]: an increase in the number of IR molecules in these clusters; also recorded: an increase in the number of IR detections in clusters | average number of IR molecules per cluster, nucleus (insulin stimulated cells (3 nM, 5 min), 9 (2-46) in unstimulated cells): 14 (2-283) | average number of IR molecules per cluster, cytoplasm (insulin stimulated cells (3 nM, 5 min), 14 (2-264) in unstimulated cells): 19 (2-295) | percentage of long-lived IR condensates in the plasma membrane, cytoplasm and nucleus (insulin-resistant (3 nM insulin) versus sensitive cells (FIG. 18B)): also increased | average lifetime of short-lived IR clusters, nucleus (pathologic insulin (3 nM), insulin resistant cells, 5.9 s in sensitive cells (FIG. 4B)): 16 s | average lifetime of short-lived IR clusters, cytoplasm (pathologic insulin (3 nM), insulin resistant cells, 9.8 s in sensitive cells (FIG. 4B)): 13.2 s | average lifetime of short-lived IR condensates, plasma membrane (pathologic insulin (3 nM), insulin-resistant cells, 6.8 s in sensitive cells (FIG. 18B)): 11.8 s | average lifetime of short-lived IR condensates, nucleus (pathologic insulin (3 nM), insulin-resistant cells, 7.0 s in sensitive cells (FIG. 18B)): 12.9 s | average lifetime of short-lived IR condensates, cytoplasm (pathologic insulin (3 nM), insulin-resistant cells, 10.0 s in sensitive cells (FIG. 18B)): 15.8 s

TNFα
IR dynamics in condensates (HepG2 IR-Dendra2 cells, pathological TNFα or high nutrients (FIGS. 36A-36B)): decreased IR dynamics in condensates

CN(C)C(=N)N=C(N)N [metformin, reference compound]
IR condensate lifetimes in the plasma membrane, cytoplasm and nucleus (insulin-resistant cells, 12.5 μM metformin, after insulin washout (FIG. 18B)): rescued condensate lifetimes in the plasma membrane, cytoplasm and nucleus to times that were similar to those in insulin-sensitive cells | IR condensate lifetime in insulin-sensitive cells (insulin-sensitive HepG2 IR-Dendra2 cells, 12.5 μM metformin for 1 day (FIG. 37)): did not decrease IR condensate lifetime; also recorded: does not decrease IR condensate lifetime | IR cluster lifetimes in the cytoplasm and nucleus (metformin-treated insulin resistant cells (FIG. 5C), no acute insulin stimulation): reduced cluster lifetimes in the cytoplasm and nucleus to times that were similar to those in insulin sensitive cells | IR cluster lifetimes in the plasma membrane (metformin-treated insulin resistant cells, 12.5 M metformin as printed (FIG. 5C), no acute insulin stimulation): little effect | frequency of nuclear IR clusters with 0-25 s lifetimes (metformin-treated resistant cells vs resistant cells (FIG. 5C)): increased | frequency of plasma membrane and nuclear IR condensates with 0-13 s lifetimes (metformin-treated resistant cells vs resistant cells (FIG. 18B)): increased | IR clusters in the cytoplasm with a lifetime of 0-25 s (metformin-treated resistant cells, ~40% in insulin resistant cells (FIG. 5C)): ~60% | IR condensates in the cytoplasm with a lifetime of 0-13 s (metformin-treated resistant cells, ~40% in insulin-resistant cells (FIG. 18B)): ~60%
